In ChEMBL document CHEMBL2321840, “Synthesis and structure-activity relationships of indazole arylsulfonamides as allosteric CC-chemokine receptor 4 (CCR4) antagonists” (J Med Chem, 2013):

Biological target: T1, C-X-C chemokine receptor type 1 (Homo sapiens, UniProt P25024)
T1 sequence (P25024 whole entry): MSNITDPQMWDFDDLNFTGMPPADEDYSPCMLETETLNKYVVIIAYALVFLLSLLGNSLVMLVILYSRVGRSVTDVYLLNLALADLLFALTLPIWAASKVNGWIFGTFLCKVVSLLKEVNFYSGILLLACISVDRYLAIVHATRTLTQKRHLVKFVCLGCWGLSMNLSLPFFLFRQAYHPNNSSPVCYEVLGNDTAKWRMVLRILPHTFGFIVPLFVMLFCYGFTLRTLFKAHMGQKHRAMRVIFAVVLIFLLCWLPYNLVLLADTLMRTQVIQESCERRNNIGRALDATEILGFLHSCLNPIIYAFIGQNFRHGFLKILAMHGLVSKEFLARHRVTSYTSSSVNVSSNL
Test: Antagonist activity at CXCR1 receptor (unknown origin) by [35S]GTPgammaS binding assay
Format: functional

- IC50: > 10 µM
Structure (SMILES): COc1cccc2c1c(NS(=O)(=O)c1ccc(Cl)s1)nn2Cc1cccc(CNC(=O)C(C)(C)O)c1
